Source: the supplement of paper PMC11061612

Experiments:
Experiment in all cases: combination Emax (second highest fraction inhibited in the dose matrix, 72 h); higher = more inhibition; extreme values may be limits of the assay
IST-MES1 (Mesothelioma) = tested on: IST-MES1 (Mesothelioma)
Outline: (§1)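 Cell lines in DMEM/F12 or RPMI with 10% FBS were plated in 1536-well plates, held 24 hours at 37°C, 5% CO2, then given two-drug dose matrices for 72 hours (DMSO typically 0.2%). Viability was read by CellTiter-Glo 2.0 luminescence and scaled as inhibition from 0 (vehicle wells) to 1 (blank wells). Combination Emax is the second-highest inhibition in the matrix; Bliss excess is observed combination effect minus expected EA + EB − EA·EB, EA and EB being single-agent effects.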

[1] = tested on: PSN1 (Pancreatic Carcinoma)
Outline: as §1

[2] = tested on: LK-2 (Squamous Cell Lung Carcinoma)
Outline: as §1

[3] = tested on: PC-3_[JPC-3] (Lung Adenocarcinoma)
Outline: as §1

[4] = tested on: GP5d (Colorectal Carcinoma)
Outline: as §1

[5] = tested on: COLO-680N (Esophageal Squamous Cell Carcinoma)
Outline: as §1

[6] = tested on: OPM-2 (Plasma Cell Myeloma)
Outline: as §1

[7] = tested on: RCM-1 (Colorectal Carcinoma)
Outline: as §1

[8] = tested on: MFE-280 (Endometrial Carcinoma)
Outline: as §1

[9] = tested on: LB996-RCC (Kidney Carcinoma)
Outline: as §1

[10] = tested on: RKN (Other Solid Carcinomas)
Outline: as §1

[11] = tested on: CAL-62 (Thyroid Gland Carcinoma)
Outline: as §1

WM793B (Melanoma) = tested on: WM793B (Melanoma)
Outline: as §1

[12] = tested on: OAW-42 (Ovarian Carcinoma)
Outline: as §1

SF539 (Glioblastoma) = tested on: SF539 (Glioblastoma)
Outline: as §1

[13] = tested on: NCI-H2342 (Lung Adenocarcinoma)
Outline: as §1

[14] = tested on: FADU (Head and Neck Carcinoma)
Outline: as §1

[15] = tested on: SU-DHL-10 (B-Cell Non-Hodgkin's Lymphoma)
Outline: as §1

[16] = tested on: HEC-1 (Endometrial Carcinoma)
Outline: as §1

SF268 (Low Grade Glioma) = tested on: SF268 (Low Grade Glioma)
Outline: as §1

| SMILES | combination Emax (IST-MES1 (Mesothelioma)) | combination Emax [1] | combination Emax [2] | combination Emax [3] | combination Emax [4] | combination Emax [5] | combination Emax [6] | combination Emax [7] | combination Emax [8] | combination Emax [9] | combination Emax [10] | combination Emax [11] | combination Emax (WM793B (Melanoma)) | combination Emax [12] | combination Emax (SF539 (Glioblastoma)) | combination Emax [13] | combination Emax [14] | combination Emax [15] | combination Emax [16] | combination Emax (SF268 (Low Grade Glioma)) |
| --- | --- | --- | --- | --- | --- | --- | --- | --- | --- | --- | --- | --- | --- | --- | --- | --- | --- | --- | --- | --- |
| Cc1c2c(nn1C)CSCc1cc(n(C)n1)CSc1cc(c3ccccc3c1)OCCCc1c(C(=O)O)n(C)c3c-2c(Cl)ccc13 [AZD5991] + CN(C)CCCOc1ccc(-c2ccc3ncc4c(c3c2)n(C2CCOCC2)c(=O)n4C)cn1 [AZD0156] (first compound max 1 µM, 7x7, partner max 1 µM) | 0.191 | 0.397 | 0.183 | 0.279 | 0.817 | 0.219 | 1 | 0.232 | 0.38 | 0.265 | 0.173 | 0.218 | 0.305 | 0.556 | 0.302 | 0.278 | 0.972 | 1 | 0.195 | 0.3 |
| Cc1c2c(nn1C)CSCc1cc(n(C)n1)CSc1cc(c3ccccc3c1)OCCCc1c(C(=O)O)n(C)c3c-2c(Cl)ccc13 [AZD5991] + C[C@@H]1COCCN1C2=NC(=NC(=C2)C3(CC3)[S@](=N)(=O)C)C4=C5C=CNC5=NC=C4 [AZD6738] (first compound max 1 µM, 7x7, partner max 10 µM) | 0.285 | 0.488 | 0.357 | 0.37 | 0.984 | 0.324 | 1 | 0.801 | 0.384 | 0.752 | 0.215 | 0.806 | 0.834 | 0.644 | 0.919 | 0.333 | 0.985 | 1 | 0.404 | 0.692 |
| Cc1c2c(nn1C)CSCc1cc(n(C)n1)CSc1cc(c3ccccc3c1)OCCCc1c(C(=O)O)n(C)c3c-2c(Cl)ccc13 [AZD5991] + C[C@@H](Nc1cc(F)cc(F)c1)c1cc(C(=O)N(C)C)cc2c(=O)cc(N3CCOCC3)oc12 [AZD8186] (first compound max 1 µM, 7x7, partner max 3 µM) | 0.241 | 0.375 | 0.196 | 0.348 | 0.817 | 0.215 | 1 | 0.285 | 0.465 | 0.373 | 0.289 | 0.206 | 0.419 | 0.277 | 0.438 | 0.294 | 0.968 | 1 | 0.14 | 0.3 |
| Cc1c2c(nn1C)CSCc1cc(n(C)n1)CSc1cc(c3ccccc3c1)OCCCc1c(C(=O)O)n(C)c3c-2c(Cl)ccc13 [AZD5991] + Cc1cc2ncnn2cc1Nc1ncc2c(n1)n(C1CCOCC1)c(=O)n2C [AZD7648] (first compound max 1 µM, 7x7, partner max 10 µM) | 0.249 | 0.406 | 0.198 | 0.289 | 0.824 | 0.19 | 1 | 0.241 | 0.437 | 0.363 | 0.219 | 0.439 | 0.32 | 0.502 | 0.41 | 0.317 | 0.963 | 1 | 0.18 | 0.243 |
| Cc1c2c(nn1C)CSCc1cc(n(C)n1)CSc1cc(c3ccccc3c1)OCCCc1c(C(=O)O)n(C)c3c-2c(Cl)ccc13 [AZD5991] + Cn1cnc2c(F)c(Nc3ccc(Br)cc3Cl)c(C(=O)NOCCO)cc21 [Selumetinib] (first compound max 1 µM, 7x7, partner max 3 µM) | 0.257 | 0.67 | 0.203 | 0.269 | 1 | 0.236 | 1 | 0.651 | 0.278 | 0.255 | 0.292 | 0.354 | 0.454 | 0.263 | 0.427 | 0.341 | 1 | 1 | 0.143 | 0.269 |
| NC1(C(=O)N[C@@H](CCO)c2ccc(Cl)cc2)CCN(c2ncnc3[nH]ccc23)CC1 [Capivasertib] + CC(=O)c1c(C)c2cnc(Nc3ccc(N4CCNCC4)cn3)nc2n(C2CCCC2)c1=O [Palbociclib] (first compound max 10 µM, 7x7, partner max 10 µM) | 0.303 | 0.484 | 0.205 | 0.398 | 0.648 | 0.197 | 0.987 | 0.383 | 0.555 | 0.781 | 0.182 | 0.422 | 0.548 | 0.548 | 0.578 | 0.327 | 0.527 | 1 | 0.33 | 0.452 |
| NC1(C(=O)N[C@@H](CCO)c2ccc(Cl)cc2)CCN(c2ncnc3[nH]ccc23)CC1 [Capivasertib] + CC(C)n1c(=O)n(C)c2cnc3cc(F)c(-c4ccc(OCCCN5CCCCC5)nc4)cc3c21 [AZD1390] (first compound max 10 µM, 7x7, partner max 0.3 µM) | 0.249 | 0.256 | 0.0982 | 0.176 | 0.669 | 0.197 | 0.931 | 0.253 | 0.583 | 0.645 | 0.365 | 0.178 | 0.438 | 0.439 | 0.617 | 0.284 | 0.221 | 1 | 0.145 | 0.272 |
